Source: the NIST ThermoML archive (doi:10.1016/j.jct.2008.03.011)
Numbers after ± are expanded uncertainties.

What was measured:
[1] = refractive index (Na D-line) (dimensionless); xn = mol fraction of the nth substance listed; settings: 101 kPa, Liquid
[2] = xn = mol fraction of the nth substance listed; settings: 101 kPa, Liquid

In the case of C1CCCCC1 [cyclohexane] + CCC(C)=O, the refractive index ([1]; 293.15 K, Standard Abbe refractometry, x1 = 1) is reported as 1.42633 ± 0.00031, the refractive index ([1]; 298.15 K, Standard Abbe refractometry, x1 = 1) is reported as 1.42354 ± 0.00031 and the refractive index ([1]; 303.15 K, Standard Abbe refractometry, x1 = 1) is reported as 1.42073 ± 0.00031. The speed of sound ([2]; 293.15 K, Sing-around technique in a fixed-path interferometer, x1 = 1) was 1279 ± 2 m/s, the mass density ([2]; 293.15 K, x1 = 1) was 778.4 ± 0.5 kg/m3 and the speed of sound ([2]; 298.15 K, Sing-around technique in a fixed-path interferometer, x1 = 1) was 1256 ± 2 m/s. It also gave a mass density ([2]; 298.15 K, x1 = 1) of 773.8 ± 0.5 kg/m3, a speed of sound ([2]; 303.15 K, Sing-around technique in a fixed-path interferometer, x1 = 1) of 1219 ± 2 m/s and a mass density ([2]; 303.15 K, x1 = 1) of 769 ± 0.5 kg/m3.
CCCCCCCC[n+]1ccn(C)c1.F[P-](F)(F)(F)(F)F [1-octyl-3-methylimidazolium hexafluorophosphate] + CCC(C)=O gave a refractive index ([1]; 293.15 K, x1 = 0.0475) of 1.38881 ± 0.0012, a refractive index ([1]; 293.15 K, x1 = 0.0972) of 1.39567 ± 0.0012 and a refractive index ([1]; 293.15 K, x1 = 0.1918) of 1.40468 ± 0.0013. It also gave a refractive index ([1]; 293.15 K, x1 = 0.2947) of 1.41058 ± 0.0013, a refractive index ([1]; 293.15 K, x1 = 0.3949) of 1.41468 ± 0.0013 and a refractive index ([1]; 293.15 K, x1 = 0.4983) of 1.41774 ± 0.0013. It also gave a refractive index ([1]; 293.15 K, x1 = 0.5752) of 1.41934 ± 0.0013, a refractive index ([1]; 293.15 K, x1 = 0.6815) of 1.42126 ± 0.0013 and a refractive index ([1]; 293.15 K, x1 = 0.7683) of 1.42239 ± 0.0013. For the same molecule, the refractive index ([1]; 293.15 K, x1 = 0.8315) was 1.42355 ± 0.0013, the refractive index ([1]; 293.15 K, x1 = 0.9315) was 1.42474 ± 0.0013 and the refractive index ([1]; 293.15 K, x1 = 1) was 1.4244 ± 0.0013. For the same molecule, the refractive index ([1]; 298.15 K, x1 = 0.0475) was 1.38663 ± 0.0012, the refractive index ([1]; 298.15 K, x1 = 0.0972) was 1.39445 ± 0.0012 and the refractive index ([1]; 298.15 K, x1 = 0.1918) was 1.40289 ± 0.0013. For the same molecule, the refractive index ([1]; 298.15 K, x1 = 0.2947) was 1.40877 ± 0.0013, the refractive index ([1]; 298.15 K, x1 = 0.3949) was 1.41302 ± 0.0013 and the refractive index ([1]; 298.15 K, x1 = 0.4983) was 1.41614 ± 0.0013. It also gave a refractive index ([1]; 298.15 K, x1 = 0.5752) of 1.41779 ± 0.0013, a refractive index ([1]; 298.15 K, x1 = 0.6815) of 1.41979 ± 0.0013 and a refractive index ([1]; 298.15 K, x1 = 0.7683) of 1.42095 ± 0.0013. For the same molecule, the refractive index ([1]; 298.15 K, x1 = 0.8315) was 1.42198 ± 0.0013, the refractive index ([1]; 298.15 K, x1 = 0.9315) was 1.42337 ± 0.0013 and the refractive index ([1]; 298.15 K, x1 = 1) was 1.42302 ± 0.0013. It also gave a refractive index ([1]; 303.15 K, x1 = 0.0475) of 1.38505 ± 0.0012, a refractive index ([1]; 303.15 K, x1 = 0.0972) of 1.39284 ± 0.0012 and a refractive index ([1]; 303.15 K, x1 = 0.1918) of 1.40124 ± 0.0013. The refractive index ([1]; 303.15 K, x1 = 0.2947) was 1.40709 ± 0.0013, the refractive index ([1]; 303.15 K, x1 = 0.3949) was 1.41133 ± 0.0013 and the refractive index ([1]; 303.15 K, x1 = 0.4983) was 1.41466 ± 0.0013. The refractive index ([1]; 303.15 K, x1 = 0.5752) was 1.41645 ± 0.0013, the refractive index ([1]; 303.15 K, x1 = 0.6815) was 1.41825 ± 0.0013 and the refractive index ([1]; 303.15 K, x1 = 0.7683) was 1.41949 ± 0.0013. The refractive index ([1]; 303.15 K, x1 = 0.8315) was 1.42051 ± 0.0013, the refractive index ([1]; 303.15 K, x1 = 0.9315) was 1.42199 ± 0.0013 and the refractive index ([1]; 303.15 K, x1 = 1) was 1.42165 ± 0.0013. The mass density ([2]; 293.15 K, x1 = 0.0475) was 869.8 ± 0.6 kg/m3, the speed of sound ([2]; 293.15 K, x1 = 0.0475) was 1243 ± 8 m/s and the mass density ([2]; 293.15 K, x1 = 0.0972) was 923.7 ± 0.6 kg/m3. It also gave a speed of sound ([2]; 293.15 K, x1 = 0.0972) of 1268 ± 8 m/s, a mass density ([2]; 293.15 K, x1 = 0.1918) of 1002 ± 0.5 kg/m3 and a speed of sound ([2]; 293.15 K, x1 = 0.1918) of 1303 ± 8 m/s. The mass density ([2]; 293.15 K, x1 = 0.2947) was 1063.1 ± 0.6 kg/m3, the speed of sound ([2]; 293.15 K, x1 = 0.2947) was 1331 ± 8 m/s and the mass density ([2]; 293.15 K, x1 = 0.3949) was 1107.9 ± 0.7 kg/m3. For the same molecule, the speed of sound ([2]; 293.15 K, x1 = 0.3949) was 1352 ± 8 m/s, the mass density ([2]; 293.15 K, x1 = 0.4983) was 1143.6 ± 0.7 kg/m3 and the speed of sound ([2]; 293.15 K, x1 = 0.4983) was 1368 ± 8 m/s. It also gave a mass density ([2]; 293.15 K, x1 = 0.5752) of 1164.9 ± 0.8 kg/m3, a speed of sound ([2]; 293.15 K, x1 = 0.5752) of 1378 ± 8 m/s and a mass density ([2]; 293.15 K, x1 = 0.6815) of 1189.5 ± 0.9 kg/m3. The speed of sound ([2]; 293.15 K, x1 = 0.6815) was 1389 ± 8 m/s, the mass density ([2]; 293.15 K, x1 = 0.7683) was 1205.8 ± 0.9 kg/m3 and the speed of sound ([2]; 293.15 K, x1 = 0.7683) was 1399 ± 8 m/s. For the same molecule, the mass density ([2]; 293.15 K, x1 = 0.8315) was 1216.4 ± 0.9 kg/m3, the speed of sound ([2]; 293.15 K, x1 = 0.8315) was 1406 ± 8 m/s and the mass density ([2]; 293.15 K, x1 = 0.9315) was 1230.9 ± 1 kg/m3. For the same molecule, the speed of sound ([2]; 293.15 K, x1 = 0.9315) was 1425 ± 9 m/s, the mass density ([2]; 293.15 K, x1 = 1) was 1239.6 ± 1.1 kg/m3 and the speed of sound ([2]; 293.15 K, x1 = 1) was 1424 ± 9 m/s. The mass density ([2]; 298.15 K, x1 = 0.0475) was 864.3 ± 0.6 kg/m3, the speed of sound ([2]; 298.15 K, x1 = 0.0475) was 1224 ± 8 m/s and the mass density ([2]; 298.15 K, x1 = 0.0972) was 918.9 ± 0.6 kg/m3. For the same molecule, the speed of sound ([2]; 298.15 K, x1 = 0.0972) was 1249 ± 8 m/s, the mass density ([2]; 298.15 K, x1 = 0.1918) was 997.6 ± 0.5 kg/m3 and the speed of sound ([2]; 298.15 K, x1 = 0.1918) was 1286 ± 8 m/s. For the same molecule, the mass density ([2]; 298.15 K, x1 = 0.2947) was 1058.8 ± 0.6 kg/m3, the speed of sound ([2]; 298.15 K, x1 = 0.2947) was 1315 ± 8 m/s and the mass density ([2]; 298.15 K, x1 = 0.3949) was 1103.7 ± 0.7 kg/m3. For the same molecule, the speed of sound ([2]; 298.15 K, x1 = 0.3949) was 1337 ± 8 m/s, the mass density ([2]; 298.15 K, x1 = 0.4983) was 1139.4 ± 0.7 kg/m3 and the speed of sound ([2]; 298.15 K, x1 = 0.4983) was 1354 ± 8 m/s. For the same molecule, the mass density ([2]; 298.15 K, x1 = 0.5752) was 1160.9 ± 0.8 kg/m3, the speed of sound ([2]; 298.15 K, x1 = 0.5752) was 1364 ± 8 m/s and the mass density ([2]; 298.15 K, x1 = 0.6815) was 1185.5 ± 0.9 kg/m3. The speed of sound ([2]; 298.15 K, x1 = 0.6815) was 1376 ± 8 m/s, the mass density ([2]; 298.15 K, x1 = 0.7683) was 1202 ± 0.9 kg/m3 and the speed of sound ([2]; 298.15 K, x1 = 0.7683) was 1386 ± 8 m/s. The mass density ([2]; 298.15 K, x1 = 0.8315) was 1212.8 ± 0.9 kg/m3, the speed of sound ([2]; 298.15 K, x1 = 0.8315) was 1392 ± 8 m/s and the mass density ([2]; 298.15 K, x1 = 0.9315) was 1227.5 ± 1 kg/m3. For the same molecule, the speed of sound ([2]; 298.15 K, x1 = 0.9315) was 1410 ± 8 m/s, the mass density ([2]; 298.15 K, x1 = 1) was 1235.7 ± 1 kg/m3 and the speed of sound ([2]; 298.15 K, x1 = 1) was 1408 ± 8 m/s. For the same molecule, the mass density ([2]; 303.15 K, x1 = 0.0475) was 859.6 ± 0.7 kg/m3, the speed of sound ([2]; 303.15 K, x1 = 0.0475) was 1195 ± 7 m/s and the mass density ([2]; 303.15 K, x1 = 0.0972) was 914.1 ± 0.6 kg/m3. It also gave a speed of sound ([2]; 303.15 K, x1 = 0.0972) of 1229 ± 8 m/s, a mass density ([2]; 303.15 K, x1 = 0.1918) of 993.2 ± 0.5 kg/m3 and a speed of sound ([2]; 303.15 K, x1 = 0.1918) of 1269 ± 8 m/s. It also gave a mass density ([2]; 303.15 K, x1 = 0.2947) of 1054.6 ± 0.6 kg/m3, a speed of sound ([2]; 303.15 K, x1 = 0.2947) of 1300 ± 8 m/s and a mass density ([2]; 303.15 K, x1 = 0.3949) of 1099.5 ± 0.7 kg/m3. The speed of sound ([2]; 303.15 K, x1 = 0.3949) was 1323 ± 8 m/s, the mass density ([2]; 303.15 K, x1 = 0.4983) was 1135.3 ± 0.7 kg/m3 and the speed of sound ([2]; 303.15 K, x1 = 0.4983) was 1340 ± 8 m/s. For the same molecule, the mass density ([2]; 303.15 K, x1 = 0.5752) was 1156.9 ± 0.8 kg/m3, the speed of sound ([2]; 303.15 K, x1 = 0.5752) was 1351 ± 8 m/s and the mass density ([2]; 303.15 K, x1 = 0.6815) was 1181.5 ± 0.8 kg/m3. For the same molecule, the speed of sound ([2]; 303.15 K, x1 = 0.6815) was 1363 ± 8 m/s, the mass density ([2]; 303.15 K, x1 = 0.7683) was 1198.3 ± 0.9 kg/m3 and the speed of sound ([2]; 303.15 K, x1 = 0.7683) was 1372 ± 8 m/s. It also gave a mass density ([2]; 303.15 K, x1 = 0.8315) of 1209.1 ± 0.9 kg/m3, a speed of sound ([2]; 303.15 K, x1 = 0.8315) of 1379 ± 8 m/s and a mass density ([2]; 303.15 K, x1 = 0.9315) of 1223.9 ± 1 kg/m3. For the same molecule, the speed of sound ([2]; 303.15 K, x1 = 0.9315) was 1395 ± 8 m/s, the mass density ([2]; 303.15 K, x1 = 1) was 1231.9 ± 1 kg/m3 and the speed of sound ([2]; 303.15 K, x1 = 1) was 1393 ± 8 m/s.
Work on CCC(C)=O [butanone] + CCCCCCCC[n+]1ccn(C)c1.F[P-](F)(F)(F)(F)F yielded a refractive index ([1]; 293.15 K, x2 = 0) of 1.37879 ± 0.0012, a refractive index ([1]; 298.15 K, x2 = 0) of 1.37618 ± 0.0012 and a refractive index ([1]; 303.15 K, x2 = 0) of 1.37355 ± 0.0012. It also gave a mass density ([2]; 293.15 K, x2 = 0) of 805.6 ± 0.7 kg/m3, a speed of sound ([2]; 293.15 K, x2 = 0) of 1212 ± 8 m/s and a mass density ([2]; 298.15 K, x2 = 0) of 799.7 ± 0.7 kg/m3. For the same molecule, the speed of sound ([2]; 298.15 K, x2 = 0) was 1192 ± 7 m/s, the mass density ([2]; 303.15 K, x2 = 0) was 794.9 ± 0.8 kg/m3 and the speed of sound ([2]; 303.15 K, x2 = 0) was 1163 ± 7 m/s.
